Type in all cases: cell-based
The subject of one experiment is M. Smegmatis ATCC607. The experiment in a line: In-vitro anti-bacterial activity against strain M. smegmatis ATCC607. The settings on record: for M. smegmatis IC90: 90% inhibitory concentration for bacterial growth, 48 hours, Alamar Blue fluorescence. As to the method: Flat-bottom, sterile 96-well plastic microtiter plates were filled with 180 μl of sterile deionized water, supplemented with 0.25% BSA. Subsequently, stock solutions (7.8× final test concentration) of compounds were added in 45 μl volumes to a series of duplicate wells in column 2 so as to allow evaluation of their effects on bacterial growth. Serial five-fold dilutions (45 μl in 180 μl) were made directly in the microtiter plates from column 2 to 11 using a customised robot system (Zymark Corp., Hopkinton, Mass.). Pipette tips were changed after every 3 dilutions to minimize pipetting errors with high hydrophobic compounds. Untreated control samples with (column 1) and without (column 12) inoculum were included in each microtiter plate. Approximately 250 CFU per well of bacteria inoculum, in a volume of 100 μl in 2.8× Mueller-Hinton broth medium, was added to the rows A to H, except column 12. The same volume of broth medium without inoculum was added to column 12 in row A to H. The cultures were incubated at 37° C. for 48 hours in a humidified 5% CO2 atmosphere (incubator with open air valve and continuous ventilation). At the end of incubation, two days after inoculation, the bacterial growth was quantitated fluorometrically. Therefore Alamar Blue (10×) was added to all wells in a volume of 20 μl and plates were incubated for another 2 hours at […]
The fluorescence was read in a computer-controlled fluorometer (Cytofluor, Biosearch) at an excitation wavelength of 530 nm and an emission wavelength of 590 nm (gain 30).

For experiment [1], the system named is Streptococcus pneumoniae (ATCC6305). The experiment in a line: Microtitre plate assay, IC90 determination, SPN 6305. The settings on record: 90% inhibitory concentration for bacterial growth, resazurin; for IC90 (μg/ml) SPN 6305: Streptococcus pneumoniae ATCC6305. As to the method:
(§1) The bacteria used in this study were grown overnight in flasks containing 100 ml Mueller-Hinton Broth (Becton Dickinson—cat. no. 275730) in sterile de-ionized water, with shaking, at 37° C. Stocks (0.5 ml/tube) were stored at −70° C. until use. Bacteria titrations were performed in microtiter plates to detect the TCID50, in which the TCID50 represents the dilution that gives rise to bacterial growth in 50% of inoculated cultures.
(§2) In general, an inoculum level of approximately 100 TCID50 was used for susceptibility testing.
(§3) Flat-bottom, sterile 96-well plastic microtiter plates were filled with 180 μl of sterile deionized water, supplemented with 0.25% BSA. Subsequently, stock solutions (7.8× final test concentration) of compounds were added in 45 μl volumes in column 2 Serial five-fold dilutions (45 μl in […]) were made directly in the microtiter plates from column 2 to reach column 11. Untreated control samples with (column 1) and without (column 12) inoculum were included in each microtiter plate. Depending on the bacteria type, approximately 10 to 60 CFU per well of bacteria inoculum (100 TCID50), in a volume of 100 μl in 2.8× Mueller-Hinton broth medium, was added to the rows A to H, except column 12. The same volume of broth medium without inoculum was added to column 12 in row A to H. The cultures were incubated at 37° C. for 24 hours under a normal atmosphere (incubator with open air valve and continuous ventilation). At the end of incubation, one day after inoculation, the bacterial growth was quantitated fluorometrically. Therefore resazurin (0.6 mg/ml) was added in a volume of 20 μl to all wells 3 hours after inoculation, and the plates were re-incubated overnight. A change in colour from blue to pink indicated the growth of bacteria. The fluorescence was read in a computer-controlled fluorometer (Cytofluor Biosearch) at an excitation wavelength of 530 nm and an emission wavelength of 590 nm. The % growth inhibition achieved by the compounds was calculated according to standard methods.

Experiment [2] concerns Staphylococcus aureus (ATCC29213). The experiment in a line: Microtitre plate assay, IC90 determination, STA 29213. The settings on record: for IC90 (μg/ml) STA 29213: Staphylococcus aureus ATCC29213, 90% inhibitory concentration for bacterial growth, resazurin. As to the method:
as §1, §2, §3

Converted amounts (≈) assume the structure as drawn.

In the case of `COc1nc2ccc(-c3cc4ccccc4s3)cc2cc1C(C(=CCN(C)C)c1cccc2ccccc12)c1ccccc1` (mixture of isomers) [Compound 34], the “M. smegmatis IC90” value with M. Smegmatis ATCC607 amounted to 2.35 µg/mL. Besides, in experiment [1], the “IC90 (μg/ml) SPN 6305” value came out at 10.51 µg/mL.

Turning to `COc1nc2ccc(Br)cc2cc1C(=C(CCN1CCOCC1)c1ccccc1)c1ccccc1` (mixture of isomers) [Compound 43], the “M. smegmatis IC90” value in the experiment on M. Smegmatis ATCC607 stood at 4.21 µg/mL. In addition, the “IC90 (μg/ml) STA 29213” value in experiment [2] was 52.95 µg/mL. Further, the “IC90 (μg/ml) SPN 6305” value in experiment [1] is 8.39 µg/mL.

Turning to `COc1nc2ccc(Br)cc2cc1C(=C(CCN1CCN(C)CC1)c1ccccc1)c1ccccc1` (mixture of isomers) [Compound 44], the “M. smegmatis IC90” value with M. Smegmatis ATCC607 is 4.31 µg/mL. Moreover, the “IC90 (μg/ml) STA 29213” value in experiment [2] was determined as 10.82 µg/mL. In addition, the “IC90 (μg/ml) SPN 6305” value in experiment [1] came out at 10.82 µg/mL.

For `COc1nc2ccc(Br)cc2cc1C(=C(CCN1CCN(C)CC1)c1ccccc1)c1ccccc1` (mixture of isomers) [Compound 45], the “M. smegmatis IC90” value in the experiment with M. Smegmatis ATCC607 was 9.65 µg/mL. Further, the “IC90 (μg/ml) STA 29213” value in experiment [2] was 43.09 µg/mL. For the same compound, the “IC90 (μg/ml) SPN 6305” value in experiment [1] is 10.82 µg/mL.

With `COc1nc2ccc(F)cc2cc1C(C(=CCN(C)C)c1ccccc1)c1ccccc1` (racemic) [Compound 24], in the experiment on M. Smegmatis ATCC607, the “M. smegmatis IC90” value was 5.37 µg/mL. Moreover, the “IC90 (μg/ml) STA 29213” value in experiment [2] came to 33.88 µg/mL (≈ 79.4 µM). Moreover, the “IC90 (μg/ml) SPN 6305” value in experiment [1] was determined as 1.51 µg/mL (≈ 3.54 µM).

Regarding `CCN(CC)CC=C(c1cccc2ccccc12)C(c1ccccc1)c1cc2cc(Br)ccc2nc1OC` (racemic) [Compound 28], in the experiment with M. Smegmatis ATCC607, the “M. smegmatis IC90” value was 1.79 µg/mL. Further, in experiment [2], the “IC90 (μg/ml) STA 29213” value was 8.96 µg/mL (≈ 15.8 µM). In experiment [1], the “IC90 (μg/ml) SPN 6305” value is 2.01 µg/mL (≈ 3.55 µM).

Regarding `COc1ccc2nc(OC)c(C(C(=CCN(C)C)c3ccccc3)c3ccccc3)cc2c1` (racemic) [Compound 31], the “M. smegmatis IC90” value in the experiment with M. Smegmatis ATCC607 amounted to 6.95 µg/mL. The “IC90 (μg/ml) STA 29213” value in experiment [2] is 39.09 µg/mL (≈ 89.1 µM). The “IC90 (μg/ml) SPN 6305” value in experiment [1] came out at 7.8 µg/mL (≈ 17.8 µM).

For the compound `COc1nc2ccc(-c3cc4ccccc4s3)cc2cc1C(C(=CCN(C)C)c1cccc(F)c1)c1ccccc1` (racemic) [Compound 33], in the experiment on M. Smegmatis ATCC607, the “M. smegmatis IC90” value was determined as 7.03 µg/mL. In experiment [2], the “IC90 (μg/ml) STA 29213” value was determined as 8.86 µg/mL (≈ 15.9 µM). The “IC90 (μg/ml) SPN 6305” value in experiment [1] was found to be 7.89 µg/mL (≈ 14.1 µM).

As to `COc1nc2ccc(Br)cc2cc1C(C(=CCn1cncn1)c1ccccc1)c1ccccc1` (racemic) [Compound 47], the “M. smegmatis IC90” value with M. Smegmatis ATCC607 worked out at 20.36 µg/mL.

In the case of `COc1nc2ccc(Br)cc2cc1C(C(=CCN1CCN(C)CC1)c1ccccc1)c1ccccc1` (racemic) [Compound 48], in the experiment on M. Smegmatis ATCC607, the “M. smegmatis IC90” value turned out to be 1.72 µg/mL. Also, the “IC90 (μg/ml) STA 29213” value in experiment [2] was found to be 10.82 µg/mL (≈ 19.9 µM). The “IC90 (μg/ml) SPN 6305” value in experiment [1] was 2.72 µg/mL (≈ 5.01 µM).

`COc1nc2ccc(Br)cc2cc1C(=C(CCn1ccnc1)c1ccccc1)c1ccccc1` (single isomer, unassigned) [Compound 5]: the “M. smegmatis IC90” value with M. Smegmatis ATCC607 came to 5.1 µg/mL. In addition, the “IC90 (μg/ml) STA 29213” value in experiment [2] was determined as 36.14 µg/mL (≈ 70.8 µM). Further, the “IC90 (μg/ml) SPN 6305” value in experiment [1] was 36.14 µg/mL (≈ 70.8 µM).

Consider `COc1nc2ccc(Br)cc2cc1C(=C(CCn1ccnc1)c1ccccc1)c1ccccc1` (single isomer, unassigned) [Compound 6], for which the “M. smegmatis IC90” value in the experiment on M. Smegmatis ATCC607 was determined as 10.18 µg/mL. Further, the “IC90 (μg/ml) STA 29213” value in experiment [2] stood at 10.18 µg/mL (≈ 19.9 µM). Also, in experiment [1], the “IC90 (μg/ml) SPN 6305” value came to 10.18 µg/mL (≈ 19.9 µM).

Consider `COc1nc2ccc(F)cc2cc1C(=C(CCN(C)C)c1ccccc1)c1ccccc1` (single isomer, unassigned) [Compound 39], for which the “M. smegmatis IC90” value in the experiment with M. Smegmatis ATCC607 turned out to be 16.98 µg/mL. In addition, in experiment [2], the “IC90 (μg/ml) STA 29213” value turned out to be 33.88 µg/mL (≈ 79.4 µM). Besides, in experiment [1], the “IC90 (μg/ml) SPN 6305” value was found to be 8.51 µg/mL (≈ 20 µM).

With `COc1nc2ccc(Br)cc2cc1C(=C(CCn1cncn1)c1ccccc1)c1ccccc1` (single isomer, unassigned) [Compound 42], the “M. smegmatis IC90” value in the experiment on M. Smegmatis ATCC607 is 22.84 µg/mL.

Consider `COc1nc2ccc(Br)cc2cc1/C(=C(/CCN(C)C)c1ccccc1)c1ccc(Cl)cc1` [Compound 1], for which the IC90 was found to be 1.65 µg/mL (≈ 3.16 µM) in the experiment on M. Smegmatis ATCC607 (Mycolicibacterium smegmatis, ATCC607, 48 h, read-out: M. smegmatis IC90 (μg/ml), 90% inhibitory concentration for bacterial growth, Alamar Blue fluorescence); 8.27 µg/mL (≈ 15.8 µM) in experiment [2] (Staphylococcus aureus, ATCC29213, read-out: IC90 (μg/ml) STA 29213); 1.65 µg/mL (≈ 3.16 µM) in experiment [1] (Streptococcus pneumoniae, ATCC6305, read-out: IC90 (μg/ml) SPN 6305, Streptococcus pneumoniae ATCC6305).

The values above are taken from patent US20100069366A1, “ANTIBACTERIAL QUINOLINE DERIVATIVES” (JANSSEN-CILAG, priority 2006, published 2010).
